{"source": "patent US20170022171A1", "about": "“2,5-DISUBSTITUTED CYCLOPENTANECARBOXYLIC ACIDS AND THEIR USE” (Bayer Pharma Aktiengesellschaft, priority 2014, published 2017)", "data": [{"tested_on": "rat hepatocytes", "assay": "Hepatocyte assay for determination of metabolic stability", "type": "in vitro ADME", "conditions": "after incubation with rat hepatocytes", "procedure": "The metabolic stability of test compounds towards hepatocytes is determined by incubating the compounds at low concentrations (preferably below or around 1 μM) and at low cell counts (preferably at 1*10^6 cells/ml) in order to ensure maximum linearity of kinetic conditions in the experiment. Seven samples from the incubation solution are taken for the LC-MS analysis within a fixed time pattern, in order to determine the half-life (i.e. the degradation) of the particular compound. This half life is used to calculate various “Clearance” parameters (CL) and “Fmax” values (see below).\nThe CL and Fmax values are a measure of the phase 1 and phase 2 metabolism of the compounds in the hepatocytes. In order to minimize the influence of the organic solvent on the enzymes in the incubation batches, the concentration thereof is generally limited to 1% (acetonitrile) or 0.1% (DMSO).\nFor all species and breeds, a hepatocyte cell count in the liver of 1.1*10^8 cells/g of liver is expected.\nThe parameters calculated and the meanings thereof are: • Fmax well-stirred [%] maximum possible bioavailability after oral administration • Calculation: (1−CLblood well-stirred/QH)*100 • CLblood well-stirred [L/(h*kg)] calculated blood clearance (well-stirred model) • Calculation: (QH*CL′intrinsic)/(QH+CL′intrinsic) • CL′intrinsic[ml/(min*kg)] maximum ability of the liver (of the hepatocytes) to metabolize a compound (assuming that the liver blood flow is not rate-limiting) • Calculation: CL′intrinsic, apparent*species-specific hepatocyte count [1.1*10^8/g liver]*species-specific liver weight [g/kg] • CL′intrinsic, apparent[ml/(min*mg)] normalizes the elimination constant by dividing it by the hepatocyte cell count x used (x*10^6/ml) • Calculation: ke1[1/min]/(cell count [x*10^6]/incubation volume [ml]) • (QH=species-specific liver blood flow).", "units": {"CLblood (calculated blood clearance, well-stirred)": "mL/min/kg", "Fmax (maximum possible bioavailability after oral administration, well-stirred)": "%"}, "values": [{"smiles": "Cc1ccc2nnn(C[C@H]3CC[C@@H](C(=O)c4ccc(OCc5cccc(Cl)c5)cc4)[C@@H]3C(=O)O)c(=O)c2c1", "note": "(racemic) [Example 104, (+)-(1RS,2RS,5SR)-2-{4-[(3-Chlorobenzyl)oxy]benzoyl}-5-[(6-methyl-4-oxo-1,2,3-benzotriazin-3(4H)-yl)methyl]cyclopentanecarboxylic acid]", "CLblood (calculated blood clearance, well-stirred)": 16.5, "Fmax (maximum possible bioavailability after oral administration, well-stirred)": 76.3}, {"smiles": "Cc1ccc2nnn(C[C@H]3CC[C@@H](C(=O)c4ccc(OCc5cccc(OC(F)(F)F)c5)cc4)[C@@H]3C(=O)O)c(=O)c2c1", "note": "(racemic) [Example 110, (+)-(1RS,2SR,5RS)-2-[(6-Methyl-4-oxo-1,2,3-benzotriazin-3(4H)-yl)methyl]-5-(4-{[3-(trifluoromethoxy)benzyl]oxy}benzoyl)cyclopentanecarboxylic acid]", "CLblood (calculated blood clearance, well-stirred)": 6.67, "Fmax (maximum possible bioavailability after oral administration, well-stirred)": 90.4}, {"smiles": "Cc1ccc2nnn(C[C@H]3CC[C@@H](C(=O)c4ccc(OCc5cccc(C(F)(F)F)c5)cc4)[C@@H]3C(=O)O)c(=O)c2c1", "note": "(racemic) [Example 101, (+)-(1RS,2SR,5RS)-2-[(6-Methyl-4-oxo-1,2,3-benzotriazin-3(4H)-yl)methyl]-5-(4-{[3-(trifluoromethyl)benzyl]oxy}benzoyl)cyclopentanecarboxylic acid]", "CLblood (calculated blood clearance, well-stirred)": 1.5, "Fmax (maximum possible bioavailability after oral administration, well-stirred)": 97.8}, {"smiles": "Cc1ccc2nnn(C[C@H]3CC[C@@H](C(=O)c4ccc(OCc5ccc(F)cc5)cc4)[C@@H]3C(=O)O)c(=O)c2c1", "note": "(racemic) [Example 95, (+)-(1RS,2RS,5SR)-2-{4-[(4-Fluorobenzyl)oxy]benzoyl}-5-[(6-methyl-4-oxo-1,2,3-benzotriazin-3(4H)-yl)methyl]cyclopentanecarboxylic acid]", "CLblood (calculated blood clearance, well-stirred)": 8.33, "Fmax (maximum possible bioavailability after oral administration, well-stirred)": 88.2}, {"smiles": "Cc1ccc2nnn(C[C@H]3CC[C@@H](C(=O)c4ccc(OCc5ccccc5)cc4)[C@@H]3C(=O)O)c(=O)c2c1", "note": "(racemic) [Example 92, (+)-(1RS,2RS,5SR)-2-[4-(Benzyloxy)benzoyl]-5-[(6-methyl-4-oxo-1,2,3-benzotriazin-3(4H)-yl)methyl]cyclopentanecarboxylic acid]", "CLblood (calculated blood clearance, well-stirred)": 16.8, "Fmax (maximum possible bioavailability after oral administration, well-stirred)": 76.1}]}]}
